Converted amounts (≈) assume the structure as drawn. The source made the active and inactive calls. No cut-off for these calls is given here.
How the values were obtained:
[1] = Inhibition of Electron transport protein complex-dependent oxidative phosphorylation system-mediated ATP synthesis in Acinetobacter baumannii membranes; type: cell membranes
[2] = Selectivity ratio of IC50 for oxidative phosphorylation system-mediated ATP synthesis in bovine heart submitochondrial particle to IC50 for oxidative phosphorylation system-mediated ATP synthesis in Acinetobacter baumannii membranes; type: cell membranes
HepG2 = assay: Cytotoxicity against human HepG2 cells after 1 hr by MTS reduction assay in absence of serum; type: cell-based; conditions: HepG2, 1 h
Acinetobacter baumannii [3] = assay: Antimicrobial activity against Acinetobacter baumannii; type: functional
[4] = Inhibition of Electron transport protein complex-dependent oxidative phosphorylation system-mediated ATP synthesis in bovine heart submitochondrial particle; set-up: species or system Bos taurus
[5] = Cytotoxicity against mouse NIH/3T3 cells after 1 hr by MTS reduction assay in absence of serum; type: cell-based; conditions: NIH3T3, 1 h
[6] = Half life in mouse liver microsomes; type: ADME
Staphylococcus aureus [7] = assay: Antimicrobial activity against methicillin-resistant Staphylococcus aureus USA 300; type: functional
Klebsiella pneumoniae [8] = assay: Antimicrobial activity against Klebsiella pneumoniae ATCC 4352; type: functional
[9] = Half life in human liver microsomes; type: ADME
Acinetobacter baumannii [10] = assay: Antimicrobial activity against Acinetobacter baumannii ATCC 17978; type: functional
Acinetobacter baumannii [11] = assay: Inhibition of NDH1-mediated O2 consumption in Acinetobacter baumannii membranes at 50 uM in presence of NADH and ascorbate/TMPD; type: cell membranes
Staphylococcus aureus [12] = assay: Antimicrobial activity against Staphylococcus aureus ATCC 25923; type: functional
Klebsiella pneumoniae [13] = assay: Antimicrobial activity against Klebsiella pneumoniae ATCC 13883; type: functional
Acinetobacter baumannii [14] = assay: Inhibition of NDH1-mediated O2 consumption in Acinetobacter baumannii membranes at 50 uM in presence of NADH; type: cell membranes
Acinetobacter baumannii [15] = assay: Antimicrobial activity against Acinetobacter baumannii BAA-1606; type: functional
Escherichia coli [16] = assay: Antimicrobial activity against Escherichia coli ATCC 25922; type: functional
Pseudomonas aeruginosa = assay: Antimicrobial activity against Pseudomonas aeruginosa ATCC 10145; type: functional
Escherichia coli [17] = assay: Antimicrobial activity against Escherichia coli ATCC 25922 in presence of 40% serum; type: functional
Klebsiella pneumoniae [18] = assay: Antimicrobial activity against Klebsiella pneumoniae ATCC 13883 in presence of 40% serum; type: functional
Acinetobacter baumannii [19] = assay: Bactericidal activity against Acinetobacter baumannii at 8 times IC50 by time-kill assay; type: functional, organism-based
Acinetobacter baumannii [20] = assay: Inhibition of NDH1-mediated O2 consumption in Acinetobacter baumannii membranes at 50 to 100 uM in presence of succinate; type: cell membranes

Compound | IC50 [1] [µM] | Ratio IC50 [2] | IC50 (HepG2) [µM] | MIC (Acinetobacter baumannii [3]) [µM] | IC50 [4] [µM] | IC50 [5] [µM] | other results
CC(C)(C)OC(=O)N1CCC(CCn2c(=N)n(CCCOc3ccc(Cl)cc3Cl)c3ccccc32)CC1 | 1.7 | 0.6 | 42 | 50 (≈ 27.4 µg/mL) | 1 | 25 | 
CCCN(CCC)CCn1c(=N)n(CCCOc2ccc(Cl)cc2Cl)c2ccccc21 | 2.8 | 1 | 49 | 25 (≈ 11.6 µg/mL) | 2.9 | 28 | 
CCn1c(=N)n(CCCOc2ccc(Cl)cc2Cl)c2ccccc21 | 6.4 | 1.4 | 96 | 50 (≈ 18.2 µg/mL) | 8.8 | 24 | 
N=c1n(CCCOc2ccc(Cl)cc2Cl)c2ccccc2n1CCc1ccccn1 | 3.2 | 2.1 | 60 | 100 (≈ 44.1 µg/mL) | 6.6 | 36 | 
N=c1n(CCCOc2ccc(Cl)cc2Cl)c2ccccc2n1CCN1CCCC1 | 2.1 | 2.3 | 67 | 13 (≈ 5.63 µg/mL) | 4.9 | 12 | 
COLISTIN |  |  |  |  |  |  | MIC90 (Acinetobacter baumannii [3]): 2 µg/mL
N=c1n(CCCOc2ccc(Cl)cc2Cl)c2ccccc2n1CCn1ccnc1 | 18.3 | 2.7 | 137 | > 100 | 49.7 | 61 | 
N=c1n(CCCOc2ccc(Cl)cc2Cl)c2ccccc2n1CCN1CCCC1=O | 3.6 | 0.9 | 63 | > 100 | 3.1 | 99 | 
CCOCCOCCn1c(=N)n(CCCOc2ccc(Cl)cc2Cl)c2ccccc21 | 5.6 | 1.1 | 151 | > 100 | 6 | 62 | 
N=c1n(CCCOc2ccc(Cl)cc2Cl)c2ccccc2n1Cc1ccc(C(F)(F)F)nc1.O=C(O)C(F)(F)F | 0.9 | 1 | 35 | 50 | 0.9 | 22 | half-life [6]: > 90 min
N=c1n(CCCOc2ccc(Cl)cc2Cl)c2ccccc2n1CC(=O)N1CCN(c2ccccc2)CC1.O=C(O)C(F)(F)F | 1 | 0.8 | 1300 | > 100 | 0.8 | 400 | half-life [6]: 25.2 min
N=c1n(CCCOc2ccc(Cl)cc2Cl)c2ccccc2n1CCCN1CCCCC1 | 3.6 | 6.2 | 83 | 50 (≈ 23.1 µg/mL) | 22.4 | 37 | 
OC(CNCc1nc2ccccc2[nH]1)COc1ccc(Cl)cc1Cl (configuration not stated) | 41 | 2.6 |  | > 100 | 106 |  | 
OC(COc1ccc(Cl)cc1Cl)Cn1c(NCCCN2CCOCC2)nc2ccccc21 (configuration not stated) | 7.8 | 1.2 |  | > 100 | 9.6 |  | 
CCN(CC)CCCNc1nc2ccccc2n1CC(O)COc1ccc(Cl)cc1Cl (configuration not stated) | 10 | 1.3 |  | > 100 | 13 |  | 
CCN(CC)C(=O)Cn1c(=N)n(CCCOc2ccc(Cl)cc2Cl)c2ccccc21 | 6 | 1.9 | 143 | > 100 | 11.4 | 68 | 
Br.CCN(CC)CCn1c(=N)n(CCCOc2ccc(Cl)cc2Cl)c2ccccc21 | 0.61 | 3 | 83 | 13 | 2.9 | 20 | MIC (Staphylococcus aureus [7]): 5 µg/mL; MIC (Klebsiella pneumoniae [8]): 5 µg/mL; half-life [9]: 9.2 min; MIC (Acinetobacter baumannii [10]): 12.5 µg/mL; inhibition (Acinetobacter baumannii [11]): inactive; MIC (Staphylococcus aureus [12]): 11 µg/mL; half-life [6]: 13 min; MIC (Klebsiella pneumoniae [13]): 22 µg/mL; inhibition (Acinetobacter baumannii [14]): Active; MIC (Acinetobacter baumannii [15]): 12.5 µg/mL; MIC (Escherichia coli [16]): 11 µg/mL; MIC (Pseudomonas aeruginosa): > 22 µg/mL; MIC (Escherichia coli [17]): > 22 µg/mL; MIC (Klebsiella pneumoniae [18]): > 22 µg/mL; Activity (Acinetobacter baumannii [19]): Active; inhibition (Acinetobacter baumannii [20]): inactive
CCN(CC)CCn1c(=N)n(CC(O)COc2ccc(Cl)cc2Cl)c2ccccc21 (configuration not stated) | 1.9 |  |  | 25 (≈ 11.3 µg/mL) | 5.6 |  | inhibition (Acinetobacter baumannii [14]): Active; Activity (Acinetobacter baumannii [19]): Active
N=c1n(CCCOc2ccc(Cl)cc2Cl)c2ccccc2n1CCCc1ccccc1.O=C(O)C(F)(F)F | 2.1 | 1.1 | 65 | 25 | 2.2 | 36 | half-life [6]: 48.2 min
CCN(CC)CCn1c(=N)n(CCCc2ccc(Cl)cc2Cl)c2ccccc21 | 5 | 1.9 |  | 25 (≈ 10.5 µg/mL) | 9.4 |  | Activity (Acinetobacter baumannii [19]): Active
CCN(CC)CCn1c(=N)n(CCOc2ccc(Cl)cc2Cl)c2ccccc21 | 6.9 | 2.7 |  | 100 (≈ 42.1 µg/mL) | 18.3 |  | Activity (Acinetobacter baumannii [19]): Active
Nc1nc2ccccc2n1CCCOc1ccc(Cl)cc1Cl | 0.9 | 0.9 |  | 25 (≈ 8.41 µg/mL) | 0.8 |  | MIC (Acinetobacter baumannii [10]): 6.25 µg/mL (≈ 18.6 µM); MIC (Acinetobacter baumannii [15]): 6.25 µg/mL (≈ 18.6 µM)
N=c1n(CCCOc2ccc(Cl)cc2Cl)c2ccccc2n1CCN1CCOCC1 | 9.2 | 2.8 | 215 | > 100 | 25.5 | 76 | 
CCCCn1c(=N)n(CCCOc2ccc(Cl)cc2Cl)c2ccccc21 | 3.8 | 0.5 | 72 | 50 (≈ 19.6 µg/mL) | 1.8 | 28 | 
Cc1noc(C)c1Cn1c(=N)n(CCCOc2ccc(Cl)cc2Cl)c2ccccc21 | 1.9 | 3.2 | 168 | 100 (≈ 44.5 µg/mL) | 6.1 | 94 | 
CCN(CC)CCn1c(N)nc2ccccc21 | 40 | 2.5 |  | > 100 | 100 |  | 
CCN(CC)CCn1c(=O)n(CC(O)COc2ccc(Cl)cc2Cl)c2ccccc21 (configuration not stated) | 12 | 1.8 |  | > 100 | 21 |  | 
CC(C)N(CCn1c(=N)n(CCCOc2ccc(Cl)cc2Cl)c2ccccc21)C(C)C | 1.7 | 1.5 | 39 | 13 (≈ 6.02 µg/mL) | 2.5 | 19 | 
CCN(CC)CCNc1nc2ccccc2n1CC(O)COc1ccc(Cl)cc1Cl (configuration not stated) | 5 | 9.4 |  | > 100 | 47 |  | 
CCN(CC)CCCNc1nc2ccccc2n1CCCOc1ccc(Cl)cc1Cl | 8 | 2.5 |  | 50 (≈ 22.5 µg/mL) | 20 |  | 
